# Target: T1, monkey chymase (Macaca fascicularis, UniProt P56435)
# T1 construct: chymase was extracted from homogenized monkey cheek pouch and stomach; from tissue; host or cells: monkey cheek pouch and stomach
# T1 sequence (P56435 22-247): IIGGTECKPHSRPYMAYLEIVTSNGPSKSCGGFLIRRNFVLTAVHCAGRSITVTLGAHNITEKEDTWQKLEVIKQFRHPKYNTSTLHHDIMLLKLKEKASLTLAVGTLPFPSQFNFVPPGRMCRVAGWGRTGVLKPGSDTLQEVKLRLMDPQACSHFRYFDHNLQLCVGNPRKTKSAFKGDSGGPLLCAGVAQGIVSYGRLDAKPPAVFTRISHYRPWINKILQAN
# Assay: Monkey chymase inhibitory activity (in vitro, angiotensin I substrate)
# Format: biochemical
# Settings: Monkey Chymase Inhibition (IC50:nM), chymase purified from monkey cheek pouch and stomach; substrate angiotensin I; 37° C.
# Description: The inhibitory activities of the compounds on monkey chymase and human chymase were tested in vitro. The test compounds are as shown by Compound Nos. in Tables 13 and 14.
# Preparation of Monkey Chymase
# Chymase was purified from monkey cheek pouch and stomach in the following manner.
# Briefly, chymase was extracted from homogenized monkey cheek pouch and stomach with 0.01 mol/1000 ml sodium phosphate buffer, pH 7.4, containing 2 mol/1000 ml KCl and 0.1% Nonidet P-40 (Amresco Inc.). The solution containing chymase was applied to a heparin actigel column, and the chymase-rich fractions were collected.
# Measurement of Chymase Inhibitory Activity (In Vitro Assay)
# Briefly, the purified monkey or human chymase was diluted to an appropriate concentration with 0.01 mol/1000 ml sodium phosphate buffer, pH 7.4, containing 2 mol/1000 ml KCl and 0.1% Nonidet P-40 and used as enzyme solution. Angiotensin I (Peptide Institute Inc.) was diluted with water to 5 mg/ml and used as substrate solution. Test compounds were serially diluted with 10% DMSO. […] After pre-incubation of the mixture at 37° C., 20 μl of the substrate solution was added to the enzyme-test compound mixture and the new mixture was incubated at 37° C. Fifty μl of 30% trichloroacetic acid solution was finally added to stop the enzymatic reaction.
# The amount of L-His-L-Leu was measured as angiotensin II produced by the enzymatic reaction. Briefly, 10 μl of the reaction mixture and 10 μl of 1% orthophthalaldehyde solution dissolved in methanol were mixed with 100 μl of 2 mol/1000 ml NaOH and kept at room temperature. The reaction was then stopped by adding 10 μl of 6 mol/1000 ml HCl.
row,SMILES,IC50 [nM]
1,CC(C)[C@H](NC(=O)c1ccncc1)C(=O)N1CCC[C@H]1C(=O)NC(Cc1csc2ccccc12)C(=O)C(F)(F)F (some centres unmarked) [I-A-66],49

# Same assay, conditions: chymase purified from monkey cheek pouch and stomach; substrate angiotensin I; 37° C.; read-out: Monkey Chymase Inhibition (IC50:nM)
row,IC50 [nM],SMILES
1,33,Cc1noc(C)c1C(=O)N[C@H](C(=O)N1CCC[C@H]1C(=O)NC(Cc1csc2ccccc12)C(=O)C(F)(F)F)C1CCCCC1 (some centres unmarked) [I-A-6]
2,34,Cc1onc(-c2ccccc2)c1C(=O)N[C@H](C(=O)N1CCC[C@H]1C(=O)NC(Cc1csc2ccccc12)C(=O)C(F)(F)F)C(C)C (some centres unmarked) [I-A-7]
3,48,Cc1noc(C)c1C(=O)N[C@@H](Cc1ccccc1)C(=O)N1CCC[C@H]1C(=O)NC(Cc1csc2ccccc12)C(=O)C(F)(F)F (some centres unmarked) [I-A-8]
4,61,Cc1noc(C)c1C(=O)N[C@H](C(=O)N1CCC[C@H]1C(=O)NC(Cc1coc2ccccc12)C(=O)C(F)(F)F)C(C)C (some centres unmarked) [I-A-9]
5,77,Cc1noc(C)c1C(=O)N[C@H](C(=O)N1CCC[C@H]1C(=O)NC(Cc1c[nH]c2ccccc12)C(=O)C(F)(F)F)C(C)C (some centres unmarked) [I-A-10]
6,50,CC[C@H](NC(=O)c1c(C)noc1C)C(=O)N1CCC[C@H]1C(=O)NC(Cc1ccc2ccccc2c1)C(=O)C(F)(F)F (some centres unmarked) [I-A-13]
7,59,Cc1noc(C)c1C(=O)N[C@@H](Cc1ccccc1)C(=O)N1CCC[C@H]1C(=O)NC(Cc1ccccc1)C(=O)C(F)(F)F (some centres unmarked) [I-A-14]
8,82,Cc1noc(C)c1C(=O)N[C@H](C(=O)N1CCC[C@H]1C(=O)NC(Cc1cccc2ccccc12)C(=O)C(F)(F)F)C(C)C (some centres unmarked) [I-A-15]
9,110,Cc1noc(C)c1C(=O)N[C@H](C(=O)N1CCC[C@H]1C(=O)NC(CC1CCCCC1)C(=O)C(F)(F)F)C(C)C (some centres unmarked) [I-A-16]
10,140,Cc1noc(C)c1C(=O)N[C@H](C(=O)N1CCC[C@H]1C(=O)NC(Cc1cccs1)C(=O)C(F)(F)F)C(C)C (some centres unmarked) [I-A-17]
11,220,Cc1noc(C)c1C(=O)N[C@H](C(=O)N1CCC[C@H]1C(=O)NC(Cc1ccc2c(c1)CCC2)C(=O)C(F)(F)F)C(C)C (some centres unmarked) [I-A-18]
12,19,CC[C@H](NC(=O)c1snnc1C)C(=O)N1CCC[C@H]1C(=O)NC(Cc1csc2ccccc12)C(=O)C(F)(F)F (some centres unmarked) [I-A-21]
13,37,Cc1nnsc1C(=O)N[C@H](C(=O)N1CCC[C@H]1C(=O)NC(Cc1ccc2ccccc2c1)C(=O)C(F)(F)F)C(C)C (some centres unmarked) [I-A-22]
14,50,CC[C@H](NC(=O)c1snnc1C)C(=O)N1CCC[C@H]1C(=O)NC(Cc1ccc2ccccc2c1)C(=O)C(F)(F)F (some centres unmarked) [I-A-23]
15,150,Cc1nnsc1C(=O)N[C@H](C(=O)N1CCC[C@H]1C(=O)NC(Cc1ccc2c(c1)CCC2)C(=O)C(F)(F)F)C(C)C (some centres unmarked) [I-A-24]
16,44,Cc1noc(C)c1C(=O)N[C@H](C(=O)N1CCC[C@H]1C(=O)NC(Cc1ccccc1)C(=O)C(F)(F)F)C(C)C (some centres unmarked) [I-A-26]
17,51,Cc1noc(C)c1C(=O)N[C@H](C(=O)N1CCC[C@H]1C(=O)NC(Cc1ccccc1F)C(=O)C(F)(F)F)C(C)C (some centres unmarked) [I-A-27]
18,54,Cc1noc(C)c1C(=O)N[C@H](C(=O)N1CCC[C@H]1C(=O)NC(Cc1ccc(O)cc1)C(=O)C(F)(F)F)C(C)C (some centres unmarked) [I-A-28]
19,57,Cc1noc(C)c1C(=O)N[C@H](C(=O)N1CCC[C@H]1C(=O)NC(Cc1ccc(Cl)cc1)C(=O)C(F)(F)F)C(C)C (some centres unmarked) [I-A-29]
20,65,Cc1noc(C)c1C(=O)N[C@H](C(=O)N1CCC[C@H]1C(=O)NC(Cc1ccc(F)cc1)C(=O)C(F)(F)F)C(C)C (some centres unmarked) [I-A-30]
21,73,Cc1ccccc1CC(NC(=O)[C@@H]1CCCN1C(=O)[C@@H](NC(=O)c1c(C)noc1C)C(C)C)C(=O)C(F)(F)F (some centres unmarked) [I-A-33]
22,80,Cc1ccc(CC(NC(=O)[C@@H]2CCCN2C(=O)[C@@H](NC(=O)c2c(C)noc2C)C(C)C)C(=O)C(F)(F)F)cc1 (some centres unmarked) [I-A-35]
23,95,COc1ccc(CC(NC(=O)[C@@H]2CCCN2C(=O)[C@@H](NC(=O)c2c(C)noc2C)C(C)C)C(=O)C(F)(F)F)cc1 (some centres unmarked) [I-A-37]
24,110,Cc1noc(C)c1C(=O)N[C@H](C(=O)N1CCC[C@H]1C(=O)NC(Cc1cccc(Cl)c1)C(=O)C(F)(F)F)C(C)C (some centres unmarked) [I-A-38]
25,120,Cc1noc(C)c1C(=O)N[C@H](C(=O)N1CCC[C@H]1C(=O)NC(Cc1ccccc1Cl)C(=O)C(F)(F)F)C(C)C (some centres unmarked) [I-A-39]
26,120,Cc1cccc(CC(NC(=O)[C@@H]2CCCN2C(=O)[C@@H](NC(=O)c2c(C)noc2C)C(C)C)C(=O)C(F)(F)F)c1 (some centres unmarked) [I-A-40]

row,IC50 [nM],SMILES
1,130,Cc1noc(C)c1C(=O)N[C@H](C(=O)N1CCC[C@H]1C(=O)NC(Cc1ccc(I)cc1)C(=O)C(F)(F)F)C(C)C (some centres unmarked) [I-A-42]
2,140,Cc1noc(C)c1C(=O)N[C@H](C(=O)N1CCC[C@H]1C(=O)NC(Cc1ccc(Cl)cc1)C(=O)C(F)(F)F)C(C)C (some centres unmarked) [I-A-43]
3,170,Cc1noc(C)c1C(=O)N[C@H](C(=O)N1CCC[C@H]1C(=O)NC(Cc1ccccc1C(F)(F)F)C(=O)C(F)(F)F)C(C)C (some centres unmarked) [I-A-46]
4,63,CC(C)[C@H](NC(=O)c1ccc2snnc2c1)C(=O)N1CCC[C@H]1C(=O)NC(Cc1csc2ccccc12)C(=O)C(F)(F)F (some centres unmarked) [I-A-55]
5,47,CC(C)[C@H](NC(=O)c1ccnc2ccccc12)C(=O)N1CCC[C@H]1C(=O)NC(Cc1csc2ccccc12)C(=O)C(F)(F)F (some centres unmarked) [I-A-56]
6,100,CC(C)[C@H](NC(=O)c1ccc2c(c1)OCO2)C(=O)N1CCC[C@H]1C(=O)NC(Cc1csc2ccccc12)C(=O)C(F)(F)F (some centres unmarked) [I-A-57]
7,210,CC(C)[C@H](NC(=O)c1noc2ccccc12)C(=O)N1CCC[C@H]1C(=O)NC(Cc1csc2ccccc12)C(=O)C(F)(F)F (some centres unmarked) [I-A-58]
8,250,CC(C)[C@H](NC(=O)c1onc2ccccc12)C(=O)N1CCC[C@H]1C(=O)NC(Cc1csc2ccccc12)C(=O)C(F)(F)F (some centres unmarked) [I-A-59]
9,430,Cc1nc2c(C(=O)N[C@H](C(=O)N3CCC[C@H]3C(=O)NC(Cc3csc4ccccc34)C(=O)C(F)(F)F)C(C)C)cccc2o1 (some centres unmarked) [I-A-60]
10,37,Cc1nc(C)c(C(=O)N[C@H](C(=O)N2CCC[C@H]2C(=O)NC(Cc2csc3ccccc23)C(=O)C(F)(F)F)C(C)C)s1 (some centres unmarked) [I-A-65]
11,94,CC(C)[C@H](NC(=O)c1ccccn1)C(=O)N1CCC[C@H]1C(=O)NC(Cc1csc2ccccc12)C(=O)C(F)(F)F (some centres unmarked) [I-A-67]
12,27,CC(C)[C@H](NC(=O)c1snnc1-c1ccccc1)C(=O)N1CCC[C@H]1C(=O)NC(Cc1csc2ccccc12)C(=O)C(F)(F)F (some centres unmarked) [I-A-68]
13,98,Cc1nc(C)c(C(=O)N[C@H](C(=O)N2CCC[C@H]2C(=O)NC(Cc2csc3ccccc23)C(=O)C(F)(F)F)C(C)C)o1 (some centres unmarked) [I-A-69]
14,140,CC(C)[C@H](NC(=O)c1cccs1)C(=O)N1CCC[C@H]1C(=O)NC(Cc1csc2ccccc12)C(=O)C(F)(F)F (some centres unmarked) [I-A-70]
15,140,CC(C)[C@H](NC(=O)c1onc2cccnc12)C(=O)N1CCC[C@H]1C(=O)NC(Cc1csc2ccccc12)C(=O)C(F)(F)F (some centres unmarked) [I-A-71]
16,160,CC(C)[C@H](NC(=O)c1ccsc1)C(=O)N1CCC[C@H]1C(=O)NC(Cc1csc2ccccc12)C(=O)C(F)(F)F (some centres unmarked) [I-A-72]
17,300,CC(C)[C@H](NC(=O)c1cccnc1Oc1ccccc1)C(=O)N1CCC[C@H]1C(=O)NC(Cc1csc2ccccc12)C(=O)C(F)(F)F (some centres unmarked) [I-A-73]
18,350,CC(C)[C@H](NC(=O)c1ccco1)C(=O)N1CCC[C@H]1C(=O)NC(Cc1csc2ccccc12)C(=O)C(F)(F)F (some centres unmarked) [I-A-74]
19,380,CC(C)[C@H](NC(=O)c1nsc(Cl)c1Cl)C(=O)N1CCC[C@H]1C(=O)NC(Cc1csc2ccccc12)C(=O)C(F)(F)F (some centres unmarked) [I-A-75]
20,61,CC(C)[C@H](NC(=O)CN1CCN(CC(=O)O)C1=O)C(=O)N1CCC[C@H]1C(=O)NC(Cc1ccc2ccccc2c1)C(=O)C(F)(F)F (some centres unmarked) [I-A-83]
21,190,CC(C)[C@H](NC(=O)CN1CCN(CC(=O)OC(C)(C)C)C1=O)C(=O)N1CCC[C@H]1C(=O)NC(Cc1ccc2ccccc2c1)C(=O)C(F)(F)F (some centres unmarked) [I-A-84]
22,75,CC(C)[C@H](NC(=O)CN1CCN(CC(=O)O)C1=O)C(=O)N1CCC[C@H]1C(=O)NC(Cc1cc2ccccc2s1)C(=O)C(F)(F)F (some centres unmarked) [I-A-85]
23,210,CC(C)[C@H](NC(=O)CN1CCN(CC(=O)OC(C)(C)C)C1=O)C(=O)N1CCC[C@H]1C(=O)NC(Cc1cc2ccccc2s1)C(=O)C(F)(F)F (some centres unmarked) [I-A-86]
24,250,CC(C)[C@H](NC(=O)CN1CCN(Cc2ccccc2)C1=O)C(=O)N1CCC[C@H]1C(=O)NC(Cc1cc2ccccc2s1)C(=O)C(F)(F)F (some centres unmarked) [I-A-87]
25,68,CC(C)[C@H](NC(=O)Cn1ccc(=O)n(CC(=O)O)c1=O)C(=O)N1CCC[C@H]1C(=O)NC(Cc1ccccc1)C(=O)C(F)(F)F (some centres unmarked) [I-A-88]
26,150,CC(C)[C@H](NC(=O)Cn1ccc(=O)n(CC(=O)O)c1=O)C(=O)N1CCC[C@H]1C(=O)NC(Cc1ccc(Cl)cc1)C(=O)C(F)(F)F (some centres unmarked) [I-A-89]

# Reference: patent publication US6852744B2, “Pyrrolidine derivatives and their use as chymase inhibitor” (Dainippon Pharmaceutical Co., Ltd., priority 2000, dated 2005)
